Reference: patent US20240327415A1, “Multicomponent Complexes, Including Salts, Crystalline Forms, and Hydrates and Solvates of ENT1 Inhibitors” (iTeos Belgium SA, priority 2023, published 2024)

Tests used:
Assay type in all cases: physicochemical
[1] = pH solubility studies in buffers and biorelevant media (Example 16); conditions: for ML purity / Solub.: 24 h; for solubility: 24 hours
Description: Example 16—pH Solubility Studies—(1) Crystalline Form 2 Compound 1 di(hydrogen sulfate) trihydrate, (2) Crystalline Form 3 Compound 1 di(hydrogen sulfate), and (3) Crystalline Form 4 Compound 1 mono(hydrogen sulfate): pH solubility studies were carried out on the prepared crystalline Form 2 Compound 1 di(hydrogen sulfate) trihydrate, crystalline Form 3 Compound 1 di(hydrogen sulfate) and crystalline Form 4 Compound 1 mono(hydrogen sulfate) in the following media: (1) HCl/KCl, pH 1.2; (2) Acetate, pH 4.5; (3) Phosphate, pH 6.8; (4) FaSSIF; (5) FeSSIF; and (6) FaSSGF. Slurries of the hydrogen sulfate forms were prepared in the appropriate medium and stirred at 25° C. For the experiments in the buffer media, the pH of the slurry samples was measured and adjusted as required after 1 hour and 23 hours of the slurrying. Additional solid was added where dissolution was observed post-adjustment. The pH of the samples in the biorelevant media was measured at the 23 hour timepoint. No pH adjustment was made for the biorelevant media. After a total of 24 hours of slurrying, the mother liquors were extracted via centrifugation, and the concentrations and solution purity were determined by HPLC. The residual solids were isolated and analyzed by XRPD and are shown in FIG. 77, FIG. 78, and FIG. 79. The assessment was repeated for some of the samples, where required.

[2] = Dynamic Vapor Sorption (DVS); conditions: for moisture uptake (DVS): 25° C.
Procedure, shortened: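 At 25 °C, samples (about 5–15 mg or 10–20 mg) ramped 40–90% RH in 10% steps, each step held to stable weight (dm/dt 0.004%, 30–500 min), dried to 0% RH, returned to 40% RH; two cycles. Hygroscopicity judged from weight change; in one variant, XRPD of residual solid followed.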

[3] = Variable Temperature X-Ray Powder Diffraction (VT-XRPD)
Description: (§1) In the examples below, VT-XRPD analysis was carried out on a Philips X'Pert Pro Multipurpose diffractometer equipped with a temperature chamber. The samples were scanned between 4 and 36° 2θ using Cu K radiation (α1 λ=1.54060 Å; α2=1.54443 Å; β=1.39225 Å; α1: α2 ratio=0.5; most, if not all, B radiation is removed from the beam using an X-ray mirror) running in Bragg-Brentano geometry (step size 0.008° 2θ) using 40 kV/40 mA generator settings. Measurements were carried out from ambient temperature to an upper limit of 250° C., with a final measurement taken after cooling.
as §1, with “VT-XRPD” for “In the examples below, VT-XRPD”, “Å; β2=1.39225” for “Å; β=1.39225”, “Å; α1:α2” for “Å; α1: α2”, “all, β” for “all, B”

[4] = Karl Fischer coulometric titration (water content)
Description: In the examples below, KF titration measured using either an In Motion KF Autosampler or Direct Addition Method. The In Motion KF Autosampler was carried out via the following procedure. 15-20 mg of solid was weighed into a 10 mL glass vial and tightly sealed with a screw cap. Samples were analyzed using a Mettler Toledo C30SX and an InMotion KFOven Autosampler at 130° C. Samples were analyzed in duplicate and an average moisture content reported. See table below for further details.
The Direct Addition Method was carried out via the following procedure. 15-20 mg of solid material was accurately weighed into a vial. The solid was then manually introduced into the titration cell of a Mettler Toledo C30 Compact Titrator. The vial was back-weighed after the addition of the solid and the weight of the added solid entered on the instrument. Titration was initiated once the sample had fully dissolved in the cell. The water content was calculated automatically by the instrument as a percentage and the data printed.

[5] = FaSSGF, 25° C., pH after 24 h 0.87
[6] = FaSSIF, 25° C., pH after 24 h 1.10
[7] = FeSSIF, 25° C., pH after 24 h 1.01, Cloudy
[8] = pH 1.2 (HCl/KCl), attempt 1, 25° C., pH after 24 h 1.13
[9] = pH 4.5 (Acetate), attempt 1, 25° C., pH after 24 h 4.76→4.58
[10] = pH 4.5 (Acetate), attempt 2, 25° C., pH after 24 h 4.88→4.56
[11] = pH 6.8 (Phosphate), attempt 1, 25° C., pH after 24 h 5.57→6.70
[12] = pH 6.8 (Phosphate), attempt 2, 25° C., pH after 24 h 1.57→6.71

## COc1cc(C(=O)O[C@@H]2CCCOc3cc(cc(OC)c3OC)C(=O)NCCCN3CCCN(CC2)CC3)cc(OC)c1OC.O=S(=O)(O)O.O=S(=O)(O)O [crystalline Form 3 Compound 1 di(hydrogen sulfate)]
[1]; [5]
  ML purity: 99.51 % area
  Solub.: 72.0 mg/mL
[1]; [6]
  ML purity: 99.76 % area
  Solub.: 77.1 mg/mL
[1]; [7]
  ML purity: 99.90 % area
  Solub.: ≥208.3 mg/mL
[1]; after 24 hours slurrying in the media (Form 2: all samples except pH 4.5 Attempt 1)
  solution purity of the extracted mother liquors: > 95 % area
[1]; all the media assessed, except the pH 4.5 media, 25° C.
  solubility: > 50 mg/mL
[1]; pH 1.2
  pH solubility: pH 1.2: 76 mg/mL
  pH solubility: residual solid: mg/mL, Form 2
[1]; [8]
  ML purity: 99.56 % area
  Solub.: 75.7 mg/mL
[1]; pH 4.5
  pH solubility: pH 4.5: 54 mg/mL
  pH solubility: residual solid: mg/mL, Form 4
[1]; [9]
  ML purity: 99.59 % area
  Solub.: 54.2 mg/mL
[1]; [10]
  ML purity: 95.53 % area
  Solub.: 20.0 mg/mL
[1]; pH 4.5 media, Attempt 2, 25° C.
  solubility: 20 mg/mL
[1]; pH 6.8
  pH solubility: pH 6.8: 150 mg/mL
  pH solubility: residual solid: mg/mL, Gum
[1]; [11]
  ML purity: 99.87 % area
  Solub.: 122.5 mg/mL
[1]; [12]
  ML purity: 99.16 % area
  Solub.: 152.8 mg/mL
[2]
  DVS: solid form conversion: Conversion to P2
[2]; DVS at 25° C.
  post-DVS sample (XRPD / appearance): conversion to crystalline Form 2 Compound 1 di(hydrogen sulfate) trihydrate
[2]; at 80% RH
  DVS uptake: 7.3% uptake at
[2]; between 0-10% RH
  moisture uptake (DVS): about 5.2%
[2]; between 10-80% RH
  moisture uptake (DVS): ca. 2.1%
[2]; between 40-80% RH, first sorption cycle
  moisture uptake (DVS): ca. 7.1%
[3]
  VT-XRPD: Conv. To Form 9 from: from 50-160 °C
  VT-XRPD: Melt from: Melt from 160 °C
  VT-XRPD: input form retained at: at 25-50 °C
  temperature range in which the form is retained (VT-XRPD): 25-40 °C
[3]; Heating, 50° C., hold 30 min
  VT-XRPD Results: 3 (trace of 9)
[4]
  KF moisture content: 1.89% moisture
